Experimental data published in patent US20130184222A1, “[…] ACTIVE COMPOSITIONS AND THEIR METHODS OF USE” (AGIOS PHARMACEUTICALS, INC, priority 2010, published 2013).

biological target: IDH1 R132H (Homo sapiens, UniProt O75874, R132H); assay: In vitro assay for IDH1 R132H inhibitors (NADPH/aKG, resazurin detection); assay type: biochemical; conditions: Table 4A; 0.2 μg/ml IDH1 R132H, 50 minutes at room temperature; read-out: IC50 (uM), IDH1 R132H Inhibition
Experimental: Assays were conducted in a volume of 76 μl assay buffer (150 mM NaCl, 10 mM MgCl2, 20 mM Tris pH 7.5, 0.03% bovine serum albumin) as follows in a standard 384-well plate: To 25 ul of substrate mix (8 uM NADPH, 2 mM aKG), 1 μl of test compound was added in DMSO. The plate was centrifuged briefly, and then 25 μl of enzyme mix was added (0.2 μg/ml IDH1 R132H) followed by a brief centrifugation and shake at 100 RPM. The reaction was incubated for 50 minutes at room temperature, then 25 μl of detection mix (30 μM resazurin, […]) was added and the mixture further incubated for 5 minutes at room temperature. The conversion of resazurin to resorufin was detected by fluorescent spectroscopy at Ex544 Em590 c/o 590.
The compounds of Formula I set forth in Table 1 and the compounds set forth in Table 2 were tested in this assay and the results set forth below in Table 4A and 4B.

Sequence of IDH1 R132H (O75874 whole entry R132H): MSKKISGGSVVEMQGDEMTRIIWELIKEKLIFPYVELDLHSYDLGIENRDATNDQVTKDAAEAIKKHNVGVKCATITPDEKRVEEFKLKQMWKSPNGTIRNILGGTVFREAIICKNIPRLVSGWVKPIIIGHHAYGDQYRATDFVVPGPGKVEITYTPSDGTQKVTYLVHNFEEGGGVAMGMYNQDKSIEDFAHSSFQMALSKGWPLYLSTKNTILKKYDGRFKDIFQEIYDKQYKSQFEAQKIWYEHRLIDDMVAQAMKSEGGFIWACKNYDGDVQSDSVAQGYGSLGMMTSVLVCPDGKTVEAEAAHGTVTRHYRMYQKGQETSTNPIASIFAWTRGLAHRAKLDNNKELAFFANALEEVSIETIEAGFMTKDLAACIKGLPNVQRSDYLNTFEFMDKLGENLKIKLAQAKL

IC50 [µM] | SMILES
0.1 to 1 | O=C(NC1CCCCC1)C(c1ccccc1O)N(C(=O)Cc1cccs1)c1cccc(F)c1 (stereo not shown) [Compound 67]
≤ 0.1 | Cc1ccccc1[C@@H](C(=O)NC1CCCCC1)N(C(=O)Cc1cccs1)c1cccc(F)c1 (single isomer, unassigned) [Compound 54]
1 to 10 | CCOc1ccccc1C(C(=O)NC1CCCCC1)N(C(=O)Cc1cccs1)c1cccc(F)c1 (stereo not shown) [Compound 64]

Further lines, the compound ahead of its results:

SMILES | IC50 [µM]
O=C(NC1CCCCC1)C(c1ccccc1)N(C(=O)c1ccccn1)c1cccc(F)c1 (stereo not shown) [Compound 55] | 1 to 10
O=C(NC1CCCCC1)C(c1ccccc1)N(C(=O)Cc1cccs1)c1ccccc1 (stereo not shown) [Compound 100] | 0.1 to 1
Cc1ccccc1C(C(=O)NC1CCCCC1)N(C(=O)Cc1cccs1)c1ccccc1F (stereo not shown) [Compound 39] | 0.1 to 1
Cc1ccccc1C(C(=O)NC1CCCCC1)N(C(=O)Cc1cccs1)C(C)C (stereo not shown) [Compound 41] | 10 to 100
COc1cccc(N(C(=O)Cc2cccs2)C(C(=O)NC2CCCC2)c2ccccc2)c1 (stereo not shown) [Compound 1] | 0.1 to 1
O=C(NC1CCCCC1)C(c1cccnc1)N(C(=O)Cc1cccs1)c1cccc(F)c1 (stereo not shown) [Compound 90] | 1 to 10
COc1ccc(C(C(=O)NC2CCCC2)N(C(=O)Cc2cccs2)c2cccc(F)c2)cc1OC (stereo not shown) [Compound 19] | ≥ 100
O=C(NC1CCCCC1)C(Cc1ccccc1)N(C(=O)Cc1cccs1)c1cccc(F)c1 (stereo not shown) [Compound 82] | 1 to 10
Cc1ccccc1C(C(=O)NC1CCCC1)N(C(=O)Cn1nnc2ccccc21)c1ccccc1F (stereo not shown) [Compound 5] | 0.1 to 1
Cc1ccccc1C(C(=O)NC1CCCCC1)N(C(=O)Cc1cccs1)c1ccc(Br)c(Cl)c1 (stereo not shown) [Compound 73] | 0.1 to 1

same assay, conditions: Table 4B; 0.2 μg/ml IDH1 R132H, 50 minutes at room temperature; read-out: IC50, IDH1 R132H Inhibition

IC50 [µM] | SMILES
≤ 0.1 | O=C(NC1CCCCC1)C(c1ccccc1Br)N(C(=O)Cc1cccs1)c1cccc(F)c1 (stereo not shown) [Compound 104]
0.1 to 1 | O=C(NC1CCCCC1)C(c1cccc(Br)c1)N(C(=O)Cc1cccs1)c1cccc(F)c1 (stereo not shown) [Compound 115]
0.1 to 1 | O=C(NC1CCCCC1)C(c1cc(Cl)ccc1Cl)N(C(=O)Cc1cccs1)c1cccc(F)c1 (stereo not shown) [Compound 103]
0.1 to 1 | COc1ccccc1C(C(=O)NC1CCCCC1)N(C(=O)Cc1cccs1)c1cccc(F)c1 (stereo not shown) [Compound 116]
0.1 to 1 | O=C(NC1CCCCC1)C(c1cccc(Cl)c1)N(C(=O)Cc1cccs1)c1cccc(F)c1 (stereo not shown) [Compound 107]
0.1 to 1 | Cc1ccc(F)c(C(C(=O)NC2CCCCC2)N(C(=O)Cc2cccs2)c2cccc(F)c2)c1 (stereo not shown) [Compound 127]

Continued, compound first:

SMILES | IC50 [µM]
CC(=O)c1cccc(N(C(=O)Cc2cccs2)C(C(=O)NC2CCCCC2)c2ccccc2C)c1 (stereo not shown) [Compound 131] | 0.1 to 1
O=C(NC1CCCCC1)C(c1ccccc1F)N(C(=O)CNCc1ccncc1)c1cccc(F)c1 (stereo not shown) [Compound 323] | 0.1 to 1
COC(=O)N1CCC[C@@H]1C(=O)N(c1cccc(F)c1)[C@H](C(=O)NC1CCCCC1)c1ccccc1C [Compound 355] | 0.1 to 1
Cc1ccccc1[C@@H](C(=O)NC1CCCCC1)N(C(=O)[C@@H]1CCCN1S(C)(=O)=O)c1cccc(F)c1 [Compound 362] | 0.1 to 1
Cc1cccc(C)c1C(C(=O)NC1CCCCC1)N(C(=O)Cc1cccs1)c1cccc(F)c1 (stereo not shown) [Compound 130] | 0.1 to 1
C#CC(=O)N(c1cccc(F)c1)C(C(=O)NC1CCCCC1)c1ccccc1C (stereo not shown) [Compound 142] | 0.1 to 1
Cc1ccccc1C(C(=O)NC1CCCCC1)N(C(=O)CCl)c1cccc(F)c1 (stereo not shown) [Compound 118] | 0.1 to 1
Cc1ccccc1C(C(=O)NC1CCCCC1)N(C(=O)CNc1ccccc1)c1cccc(F)c1 (stereo not shown) [Compound 155] | ≤ 0.1
O=C(NC1CCCCC1)C(c1cc(F)cc(Cl)c1)N(C(=O)Cc1cccs1)c1cccc(F)c1 (stereo not shown) [Compound 102] | 0.1 to 1
Cc1ccccc1C(C(=O)NC1CCCCC1)N(C(=O)Cn1ccnn1)c1cccc(F)c1 (stereo not shown) [Compound 329] | 0.1 to 1
Cc1ccccc1C(C(=O)NC1CCCCC1)N(C(=O)CN1CCc2ccccc21)c1cccc(F)c1 (stereo not shown) [Compound 153] | 0.1 to 1
COC(=O)NCC(=O)N(c1ccc(F)c(F)c1)C(C(=O)NC1CCCCC1)c1ccccc1C (stereo not shown) [Compound 358] | 0.1 to 1
